Measurements: US10674724B2, “Method of activating immune response in plants” (priority 2012, dated 2020)

Columns and labels:
NPR1 = molecular target: T1, NPR1 (Arabidopsis thaliana, UniProt P93002); experiment: classical non-equilibrium solid-phase [14C]SA binding; conditions: radiolabeled SA, washes to remove unbound ligand
T1 construct: made in house; host or cells: E. coli
Method: To test whether NPR1 can bind SA directly, a classic method to assess Kd values was used, which involved coupling NPR1 to a solid phase and incubating it with radiolabeled SA, followed by washes to remove unbound ligand and counting the amount of ligand bound to NPR1.

NPR1 C521S/C529S = molecular target: T2, NPR1 C521S/C529S (Arabidopsis thaliana, UniProt P93002, C521S/C529S); experiment: Sephacryl S300 gel filtration of NPR1 Cys-to-Ser mutant; format: biochemical; conditions: 1 mM SA
T2 construct: both full-length NPR1 and Δ513 harboring C-to-S mutations at Cys^521/529; made in house; host or cells: E. coli
T2 sequence (P93002 whole entry C521S/C529S): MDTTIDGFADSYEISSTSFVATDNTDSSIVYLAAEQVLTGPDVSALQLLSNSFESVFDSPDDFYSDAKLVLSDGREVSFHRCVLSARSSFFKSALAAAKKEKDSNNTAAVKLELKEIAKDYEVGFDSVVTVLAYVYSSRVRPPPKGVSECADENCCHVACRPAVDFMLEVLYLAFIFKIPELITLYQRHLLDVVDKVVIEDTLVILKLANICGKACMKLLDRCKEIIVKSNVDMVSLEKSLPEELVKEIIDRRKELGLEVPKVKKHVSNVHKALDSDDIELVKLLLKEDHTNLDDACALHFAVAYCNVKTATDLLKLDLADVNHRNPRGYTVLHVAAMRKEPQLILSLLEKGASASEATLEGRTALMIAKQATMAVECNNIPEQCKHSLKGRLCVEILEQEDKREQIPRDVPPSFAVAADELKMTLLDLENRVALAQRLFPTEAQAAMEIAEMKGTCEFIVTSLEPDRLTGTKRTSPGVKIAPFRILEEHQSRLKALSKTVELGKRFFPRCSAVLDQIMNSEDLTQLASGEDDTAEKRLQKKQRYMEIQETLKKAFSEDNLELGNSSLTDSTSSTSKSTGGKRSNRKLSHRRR
Method: (§1) Strep-tagged purified proteins in a final volume of 2 ml were subjected to gel filtration analysis on the Sephacryl S100 HR or Sephacryl S300 HR packed in 50 cm long HR 16 columns (GE Health) and equilibrated with S300 chromatography buffer (50 mM HEPES, pH 7.4, 250 mM NaCl. Elutions, in 0.5 ml fractions, were performed in the same buffer at a flow rate of 0.8 ml/min. Where indicated, proteins were incubated with 1 mM SA, 1 mM catechol, 1 mM 4-hydroxy benzoic acid, or 1 mM methyl-salicylate at room temperature for 30 min prior to chromatography as described above with the exception that the chromatography buffer was supplemented with 1 mM SA, 1 mM catechol, 1 mM 4-hydroxy benzoic acid, or 1 mM methyl-salicylate, respectively. In the case of the EDTA treatment, NPR1 was stripped of its metal by a 50 mM EDTA treatment of 30 min, followed by an incubation of 30 min with 1 mM SA prior to gel filtration. In this case, the chromatography buffer was supplemented with 1 mM SA.

Δ513 = molecular target: T3, Δ513 (Arabidopsis thaliana, UniProt P93002); experiment: Sephacryl S100 gel filtration of Strep-tagged Δ513; format: biochemical; conditions: 1 mM SA
T3 construct: made in house; host or cells: E. coli
T3 sequence (P93002 513-593): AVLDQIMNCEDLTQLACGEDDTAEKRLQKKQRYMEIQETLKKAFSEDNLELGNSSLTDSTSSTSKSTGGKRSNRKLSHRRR
Method: as §1

[1] = tested on: transcription activity of Δ513; experiment: in vivo plant transcription assay, Δ513:DB co-expressed with BTB/POZ; format: cell-based, Arabidopsis thaliana; conditions: 1 mM salicylic acid in medium
Method: (§2) Arabidopsis thaliana (Columbia) leaves were harvested from four-week-old plants grown at 21° C. (day) and 18° C. (night) with a ten-hour photoperiod and transferred to Petri dishes containing MS salts and micronutrients supplemented with B5 vitamins, 1% sucrose and 0.8% agar at a pH of 5.8. […] Coating of the gold particles and general procedures and preparation of the biolistic experiments were as per the manufacturer's instructions (Bio-Rad). After bombardment, leaves were kept in the conditions described above for a period of 24 hours before assaying. Enzyme assays were performed using the Dual-Luciferase Reporter Assay® system (Promega) following the manufacturer's instructions. Luminescence was measured on a Berthold Lumat LB9507 Luminometer (Bad Wildbad, Germany) and the data obtained represented the value of the reporter gene divided by the value of the internal standard and expressed as Relative Luciferase Units. To increase signal-to-noise ratio in some experiments, qPCR was performed to measure the amount of Firefly and Renilla Luciferases mRNA. The data was reported as Relative Expression and represented the value of the reporter mRNA divided by the value of the internal standard mRNA. The ratio obtained for Ga14 DB was assigned an arbitrary value of 1. […]
It was then determined whether or not the BTB/POZ could modulate the transcriptional properties of Δ513 (FIG. 5F). […]

BTB/POZ-Δ513 interaction = molecular target: T4, BTB/POZ-Δ513 interaction (Arabidopsis thaliana, UniProt P93002); experiment: in vivo plant two-hybrid assay; format: cell-based; design: expressed in transfected cells; host or cells: Arabidopsis thaliana (Columbia) leaves, biolistic bombardment; conditions: 1 mM salicylic acid in medium, reporter mRNA
T4 sequence (P93002 513-593): T3 sequence (P93002 513-593)
Method: as §2, with “mRNA.” for “mRNA. The data was reported as Relative Expression and represented the value of the reporter mRNA divided by the value of the internal standard mRNA. The ratio obtained for Ga14 DB was assigned an arbitrary value of 1.”
Since BTB/POZ domains can be autoinhibitory, it was determined whether or not the NPR1 BTB/POZ can interact with the NPR1 transactivation domain. […] Here the reporter gene was monitored through its mRNA as opposed to its enzyme activity, which provided a greater signal-to-noise ratio (see Experimental Procedures). […]

T1 sequence (P93002 whole entry): as the sequence (P93002 whole entry C521S/C529S) above, with S521C, S529C counted along it

## O=C(O)c1ccccc1O [SA, Salicylic acid]
NPR1
  binding of SA to NPR1 coupled to a solid phase: not above that observed with a solid phase containing no protein
NPR1 C521S/C529S
  SA-induced NPR1 conformation change, Cys521/529 mutant: abolished the NPR1 conformation change
Δ513
  stoichiometry of Δ513 after SA treatment (S100): consistent with that of a dimer
[1]
  transcription activity of Δ513 co-expressed with BTB/POZ in SA-treated cells: unaffected by the BTB/POZ
BTB/POZ-Δ513 interaction
  BTB/POZ-Δ513 interaction in plant two-hybrid: disrupts the BTB/POZ-Δ513 association
